Reference: ChEMBL document CHEMBL1201862, “PubChem BioAssay data set” (2004)
Several values for one entry are separate records, joined by “and”; a condition that tells them apart may be missing. Equal values may be shown once.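 All cell lines were grown in 96-well plates and treated with compound for 48 hours. GI50 marks 50% less growth.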 Activity calls are given as the source filed them. No stated cut-off is given here; in the data, active = GI50 up to about 1.1 µM and inactive = higher.

Columns and labels:
Experiment in all cases: growth of human tumour cells (NCI), 48 h
[1] = test system: SK-MEL-2
[2] = test system: NCI-H23
[3] = test system: HCT-15
[4] = test system: OVCAR-3
[5] = test system: MDA-MB-435
[6] = test system: MOLT-4
[7] = test system: IGROV-1
[8] = test system: SF-295
[9] = test system: SR
[10] = test system: HCT-116
[11] = test system: SK-MEL-28
[12] = test system: NCI-H460
[13] = test system: RXF 393
[14] = test system: HOP-62
[15] = test system: SW-620
[16] = test system: NCI-H226
[17] = test system: SF-539
[18] = test system: A549
[19] = test system: UACC-62
[20] = test system: ACHN
[21] = test system: HOP-92
[22] = test system: PC-3
[23] = test system: TK-10
[24] = test system: Malme-3M
[25] = test system: SF-268
[26] = test system: BT-549
[27] = test system: MCF7
[28] = test system: SK-MEL-5
[29] = test system: SNB-19
[30] = test system: RPMI-8226
[31] = test system: CAKI-1
[32] = test system: HCC 2998
[33] = test system: COLO 205
[34] = test system: M14
[35] = test system: KM12
[36] = test system: DU-145
[37] = test system: EKVX
[38] = test system: Hs-578T
[39] = test system: U-251
[40] = test system: NCI/ADR-RES
[41] = test system: NCI-H522
[42] = test system: MDA-N
[43] = test system: HT-29
[44] = test system: HL-60
[45] = test system: A498
[46] = test system: LOX IMVI
[47] = test system: OVCAR-5
[48] = test system: 786-0
[49] = test system: SN12C
[50] = test system: OVCAR-8
[51] = test system: MDA-MB-231
[52] = test system: K562
[53] = test system: OVCAR-4
[54] = test system: UO-31
[55] = test system: UACC-257
[56] = test system: SNB-75
[57] = test system: SK-OV-3
[58] = test system: CCRF-CEM

Measured: GI50

O=CC1C[C@@H](N2C(=O)O[C@@H](c3ccccc3)[C@H]2c2ccccc2)[C@@H]1COCc1ccccc1 (some centres undefined)
18000 nM: [3]
inactive: [1] 16400 nM | [2] 17600 nM | [4] 14.8 µM | [5] 18200 nM | [6] 6040 nM | [7] 18200 nM | [8] 17300 nM | [9] 10300 nM | [10] 16.7 µM | [11] 20 µM | [12] 18300 nM | [13] 18700 nM | [14] 18000 nM | [15] 21500 nM | [16] 20200 nM | [17] 18700 nM | [18] 29.9 µM | [19] 16800 nM | [20] 24.8 µM | [21] 15000 nM | [22] 19500 nM | [23] 20.1 µM | [24] 17000 nM | [25] 17300 nM | [26] 20.3 µM | [27] 17800 nM | [28] 15200 nM | [29] 19.9 µM | [30] 17900 nM | [31] 36.2 µM | [32] 15000 nM | [33] 19900 nM | [34] 19100 nM | [35] 43500 nM | [36] 17700 nM | [37] 20000 nM | [38] 25600 nM | [39] 16600 nM | [40] 26600 nM | [41] 16.4 µM | [42] 15000 nM | [43] 17900 nM | [44] 18900 nM | [45] 20900 nM | [46] 17.7 µM | [47] 22.4 µM | [48] 14300 nM | [49] 17000 nM | [50] 21200 nM | [51] 15700 nM | [52] 21100 nM | [53] 28600 nM | [54] 15.2 µM | [55] 17.9 µM

CC(=O)O[C@@H]1C2=C(C3=C([O-])C4=CC=CC(=O)C4C(=O)C3=C2[N+]#N)[C@H](OC(C)=O)[C@@H](OC(C)=O)[C@]1(C)O (some centres undefined)
active: [1] 832 nM | [2] 746 nM | [4] 0.502 µM | [5] 644 nM | [6] 95.9 nM | [7] 347 nM | [8] 385 nM | [9] 101 nM | [10] 0.1 µM | [11] 0.743 µM | [12] 693 nM | [13] 565 nM | [14] 711 nM | [15] 284 nM | [16] 537 nM | [17] 508 nM | [18] 0.292 µM | [19] 661 nM | [20] 0.141 µM | [21] 438 nM | [22] 417 nM | [23] 0.484 µM | [24] 332 nM | [25] 302 nM | [26] 0.631 µM | [27] 392 nM | [28] 506 nM | [29] 0.951 µM | [30] 115 nM | [31] 0.407 µM | [32] 262 nM | [34] 177 nM | [35] 333 nM | [36] 383 nM | [56] 186 nM | [37] 605 nM | [38] 173 nM | [40] 128 nM | [41] 0.173 µM | [57] 731 nM | [42] 361 nM | [44] 105 nM | [45] 923 nM | [46] 0.124 µM | [47] 0.353 µM | [48] 306 nM | [50] 184 nM | [58] 32.3 nM | [51] 286 nM | [52] 151 nM | [53] 731 nM | [54] 0.561 µM | [55] 0.719 µM
119 nM: [3]

COc1cc2c3c(c4cc(OC)c(OC)cc4c2cc1OC)CN1CCC[C@H]1C3 [(S)-TYLOPHORINE]
active: [4] 58.9 nM and 42.3 nM | [10] < 10 nM and 17.9 nM | [11] < 13.7 nM and 9.06 nM | [16] 29.4 nM | [18] < 10 nM and 13.2 nM | [20] < 10 nM and 14.5 nM | [23] < 16.7 nM and 19.4 nM | [26] 22.5 nM and 39.5 nM | [27] 10.7 nM | [29] < 10 nM and 9.35 nM | [31] < 16.3 nM and 25.8 nM | [38] 404 nM | [41] 56.6 nM and < 40.6 nM | [57] < 12.2 nM and 12.6 nM | [45] < 10 nM | [46] < 10 nM and 11.9 nM | [47] < 12.1 nM and 16.6 nM | [51] < 10.9 nM | [54] 39.9 nM and < 20.8 nM | [55] 14.3 nM and 26.6 nM
